Experimental data published in US20100324102A1, “N-(3-PYRIDIN-2-YLPROPYL) BENZAMIDE DERIVATIVES AS FUNGICIDES” (BAYER CROPSCIENCE AG, priority 2006, published 2010).

Columns and labels:
[1] = tested on: Pyrenophora teres; experiment: In vivo test on Pyrenophora teres (barley net blotch); details: barley plants (Express variety), preventive spray at 330 ppm, contamination after 24 hours, grading 12 days after contamination vs control plants
Description: (§1) The active ingredients tested are prepared by potter homogenisation in a mixture of acetone/tween/water. This suspension is then diluted with water to obtain the desired active material concentration.
Barley plants (Express variety), sown on a 50/50 peat soil-pozzolana substrate in starter cups and grown at 12° C., are treated at the 1-leaf stage (10 cm tall) by spraying with the active ingredient prepared as described above. Plants, used as controls, are treated with the mixture of acetone/tween/water not containing the active material.
After 24 hours, the plants are contaminated by spraying them with an aqueous suspension of Pyrenophora teres spores (12,000 spores per ml). The spores are collected from a 12-day-old culture. The contaminated barley plants are incubated for 24 hours at about 20° C. and at 100% relative humidity, and then for 12 days at 80% relative humidity.
Grading is carried out 12 days after the contamination, in comparison with the control plants.

[2] = tested on: Alternaria brassicae; experiment: In vivo test on Alternaria brassicae (leaf spot of crucifers); details: radish plants (Pernot variety), preventive spray at 330 ppm, contamination after 24 hours, grading 6 to 7 days after contamination vs control plants
Description: as §1
Radish plants (Pernot variety), sown on a 50/50 peat soil-pozzolana substrate in starter cups and grown at 18-20° C., are treated at the cotyledon stage by spraying with the active ingredient prepared as described above.
Plants, used as controls, are treated with the mixture of acetone/tween/water not containing the active material.
After 24 hours, the plants are contaminated by spraying them with an aqueous suspension of Alternaria brassicae spores (40,000 spores per cm^3). The spores are collected from a 12 to 13 days-old culture.
The contaminated radish plants are incubated for 6-7 days at about 18° C., under a humid atmosphere.
Grading is carried out 6 to 7 days after the contamination, in comparison with the control plants.

With O=C(NCCCc1ncc(C(F)(F)F)cc1Cl)c1ccccc1C(F)(F)F [Compound 1, N-{3-[3-chloro-5-(trifluoromethyl)pyridin-2-yl]propyl}-2-(trifluoromethyl)benzamide] the protection [1] was “at least 70%” and the protection [2] was “at least 70%”.
